# Experimental data: patent US20010034352A1, “Piperidine-4 sulphonamide compounds” (priority 2000, published 2001)
# How the values were obtained:
# Format in all cases: cell-based
# [1] = system: thoracic aorta rings of a Wistar rat; test: Vascular protective effects with respect to endothelial dysfunction induced by an inhibitor of NOS (LNA), ACh relaxation of aortic rings; conditions: compound at 3×10^−9 M, LNA 3.10^−7 M, difference between percentages of maximum ACh relaxation in presence or absence of product
# Excerpt: Under standard in vitro conditions, relaxation of aortic rings caused by acetylcholine (ACh), which relaxation is totally dependent upon the presence of endothelium, reflects the production of NO (stimulated by ACh), which by diffusing to smooth muscle cells brings about arterial relaxation (Nature, 1980, 288, 373).
# the first model consists of inducing inhibition of the relaxation due to ACh by blocking the enzymatic activity (endothelial NOS) responsible for the production of NO.
# Vascular Protective Effects with Respect to Endothelial Dysfunction Induced by an Inhibitor of NOS
# The thoracic aorta of a Wistar rat (325-375 g), anaesthetised by the intraperitoneal route using sodium pentobarbital (30 mg/kg), is removed and dissected into rings of 3 mm in length. […]
# After a 90-minute stabilisation period, the preparations are contracted using phenylephrine (PHE 10^−6 M) and relaxed by adding 10^−5 M of acetylcholine in order to verify the 10 integrity of the endothelial layer. […] The preparations are again contracted using phenylephrine and, after 30 minutes, the relaxations due to acetylcholine (ACh—10^−8M to 10^−5 M) are assessed in the presence of indomethacin (10^−5M).
# (§1) The relaxation values are expressed as a percentage relative to the maximum contraction caused by PHE. […]
# [2] = system: aortic rings of New Zealand rabbits; test: Vascular protective effects with respect to endothelial dysfunction induced by a system generating O2^− (XO-Hypo), ACh relaxation of aortic rings; conditions: compound at 3×10^−9 M; rabbit aortic rings; XO 3 mU/ml, Hypo 10^−4 M; difference between percentages of maximum ACh relaxation in presence or absence of product
# Description: the second model consists of inducing oxidative stress in vitro using an enzymatic system that generates O2^− (xanthine oxidase —XO and hypoxanthine—Hypo).
# The thoracic aorta of a Wistar rat (325-375 g), anaesthetised by the intraperitoneal route using sodium pentobarbital (30 mg/kg), is removed and dissected into rings of 3 mm in length. Each ring is suspended from an isometric tension sensor connected to a recording system and the initial tension applied is 2.5 g. The physiological solution used, which is thermostatically maintained at 37° C., and oxygenated (95% O2+5% CO2), comprises (in mM): NaCl 112.0, KCl 5.0, CaCl2 2.5, KH2PO4 1.0, MgSO4 1.2, NaHCO3 25.0, glucose 11.5, Ca-EDTA 0.016.
# After a 90-minute stabilisation period, the preparations are contracted using phenylephrine (PHE 10^−6 M) and relaxed by adding 10^−5 M of acetylcholine in order to verify the 10 integrity of the endothelial layer. If that is confirmed, the preparations are rinsed and a concentration of the test product (or its solvent) is added to the medium, followed by 3.10^−7 M of N^G-nitro-L-arginine (LNA). The preparations are again contracted using phenylephrine and, after 30 minutes, the relaxations due to acetylcholine (ACh—10^−8M to 10^−5 M) are assessed in the presence of indomethacin (10^−5M).
# as §1
# [3] = system: cGMP in rat aortic rings; test: Assessment of aortic production of cGMP stimulated by ACh in the presence of LNA (radioimmunoassay); conditions: compound at 3×10^−9 M, 30-minute incubation, ACh 10^−5 M 1 minute, LNA 3×10^−6 M, isobutylmethylxanthine 10^−5 M
# Description: Involvement of the NO Route in the Vascular Protective Effects Detected: Assessment of Aortic Production of cGMP
# By diffusing to the smooth muscle cells, the NO produced by the endothelial cells activates soluble guanylate cyclase, which brings about an increase in cyclic GMP which is responsible for relaxation.
# The rat aortic rings are prepared as previously. Assessment is made of the effects of a 30-minute incubation of the compounds of the invention at different concentrations on the production of cGMP stimulated by ACh (10^−5 M—1 minute) in the presence of LNA (3×10^−6 M). The experiments are carried out in the presence of isobutylmethylxanthine (10^−5 M) in order to avoid degradation of the cGMP by phosphodiesterases. The rings are frozen in liquid nitrogen and maintained at −80° C. until the assay is carried out. The cGMP content is assessed by radioimmunoassay and expressed in relation to the amount of protein contained in the tissue (assay by the Bradford method).
smiles,measurement,setting,value
"O=S(=O)(NC1CCN(CCc2coc3ccccc23)CC1)c1cccc2cnccc12 [Example 8, N-{1-[2-(Benzofuran-3-yl)ethyl]-4-piperidyl}-5-isoquinolinesulphonamide]",inhibition of the endothelial dysfunction induced by LNA,[1],23%
same,inhibition of the endothelial dysfunction induced by the XO-Hypo combination,[2],28.3%
same,increase of the production of cGMP stimulated by ACh in the presence of LNA,[3],142.7%
